Results reported in patent US8696867B2, “Disulfo-type fluorescent whitening agents” (Blankophor GmbH & Co. KG, priority 2009, dated 2014).

Key:
[1] = Solubility of fluorescent whitening agent in distilled water (saturated solution); format: physicochemical; details: ambient temperature (about 22° C.), grams FWA dissolved in 100 g saturated FWA solution
Method: The solubility of the fluorescent whitening agents was determined as follows: a dry powder of fluorescent whitening agent was added to 50 ml of distilled water until the saturation point was reached. The thus obtained saturated solution was filtered, dried and the dried residue was weighted.
The indicated percentages are based on the amount of grams of fluorescent whitening agent dissolved in 100 g of the corresponding saturated FWA solution.

[2] = Storage stability of approximately 20% aqueous solution; format: physicochemical; details: approximately 20% solution, ambient temperature and 4° C., without stirring
Method: The stability behavior was studied by storing an approximately 20% solution of FWA 1 and FWA 2, respectively, at ambient temperature and at 4° C., each without stirring. The aqueous brightener preparations have a shelf-life of more than 30 days both at ambient and low temperature.

| SMILES | solubility [1] | crystalline precipitates on storage [2] |
| --- | --- | --- |
| O=C([O-])c1ccc(Nc2nc(Nc3ccc(/C=C/c4ccc(Nc5nc(Nc6ccc(C(=O)[O-])cc6)nc(N(CCO)CCO)n5)cc4S(=O)(=O)[O-])c(S(=O)(=O)[O-])c3)nc(N(CCO)CCO)n2)cc1.[Na+].[Na+].[Na+].[Na+] [FWA 1] | 27.8% | no crystalline precipitates |
| CC(O)CN(CC(C)O)c1nc(Nc2ccc(C(=O)[O-])cc2)nc(Nc2ccc(/C=C/c3ccc(Nc4nc(Nc5ccc(C(=O)[O-])cc5)nc(N(CC(C)O)CC(C)O)n4)cc3S(=O)(=O)[O-])c(S(=O)(=O)[O-])c2)n1.[Na+].[Na+].[Na+].[Na+] (stereo not shown) [FWA 2] | 24.2% | no crystalline precipitates |
